In patent publication US20030036513A1, “Method for treating cancer” (priority 1999, published 2003):

Assays:
[1] = system: cells; assay: Chemosensitizing of an anti-cancer agent by a co-administered redox clamping agent (FIG. 2); type: cell-based
Text: The present invention further provides a method of reducing the effective dose of an anti-cancer agent necessary to be effective against cancer comprising administering a redox clamping agent in conjunction with an anti-cancer agent. It is preferred that the redox clamping agent is Mesna or DMSA. Redox clamping agents have the ability to maintain cells in a selected redox state. […] Redox clamping agents are useful in enhancing the therapeutic activity of chemotherapeutic agents such as butyrate that are dependent upon the redox state of the cell. Redox clamping agents are further useful in controlling hyperproliferation of cells and conditions associated with abnormal fluctuations in the redox state of cells. In one aspect, this invention provides a method of treating cancerous tumors comprising administering an effective dose of an anti-cancer agent in conjunction with a redox clamping agent, wherein the redox clamping agent acts as a chemoenhancer or a chemosensitizer. […] The administration of Mesna in conjunction with an anti-cancer agent may be as separate compounds or in a composition formulated and titrated to a dose and in a concentration that would achieve the optimal therapeutic dose of the anti-cancer agent providing a higher tumor cell kill with a lower dose of the anti-cancer agent than the typical therapeutic dose administered to a patient. […]

[2] = system: H4 Rat Hepatoma cells; assay: Stress-induced antioxidant upswing in H4 Rat Hepatoma cells after hydrogen peroxide; type: cell-based; settings: 100 uM hydrogen peroxide for two hours, medium replaced; determined after 24 hours in culture
Procedure: To further exemplify the redox clamping properties of Mesna, stress was induced in H4 Rat Hepatoma cells by treatment with 100 uM hydrogen peroxide for two hours and then the medium was removed and replaced with an anti-cancer agent. The cellular viability, as well as glutathione and metallothionein levels were determined after 24 hours in culture. […] The inhibition of stress induced upswing in antioxidant levels is characteristic of redox clamping agents.
In all of the experiments associated with the investigation of Mesna as a redox clamping agent, as a stand-alone anticancer agent as well as a chemosensitizer, the cell culture medium used was Swim's S-77 medium containing 12 uM cystine, instead of conventional levels of this amino acid (i.e., 50 uM). All other components of the medium were maintained at conventional concentrations. […] The ability of cystine to supply cells with cysteine, which then function as a precursor amino acid for glutathione synthesis, is thought to be responsible for the abnormally high basal levels of glutathione in cultured tumor cell lines.

[3] = system: Human LNCaP cells; assay: Two-step arsenic then Mesna treatment of human LNCaP cells: apoptosis and glutathione levels (FIG. 1); type: cell-based
Procedure: In one aspect, the present invention further provides a method of using a redox clamping agent as a chemosensitizer comprising contacting tumor cells with a specific class of cytotoxic agent for a period of time, preferably between 2 and 4 hours, and then washing the agent from the cells and administering the redox clamping agent. It is preferred that the redox clamping agent is Mesna. The cytotoxic or anti-cancer agents used in this design would be those such as arsenic, hydrogen peroxide and other anti-cancer agents that are known to induce a cytotoxic effect by interacting with, depleting or sequestering cellular thiols. During the two to four hour treatment these anti-cancer agents deplete cellular thiols and induce apoptotic mechanisms in the cells. However, the stress-response that is induced in the cells by these anti-cancer agents also up-regulates the production of antioxidants such as glutathione and metallothionein. These antioxidants function as potent inhibitors of apoptosis. If redox clamping agents are added after the apoptotic mechanisms are initiated, but prior to the antioxidant rebound, the redox clamping agents will function in two ways to enhance the cytotoxic effects of the anti-cancer agents. It is preferred that the redox clamping agent be Mesna, which is a thiol with low reducing potential. First, the redox clamping agents will permit the progression of apoptotic signals and the mechanisms required to mediate cell death. Secondly, the redox clamping agents will promote the apoptotic response by dramatically attenuating the antioxidant “rebound” that is associated in the inhibition of apoptosis. Redox clamping agents chemically interact with the anti-cancer agent or oppose aspects of the early stress-response that is induced by pure oxidants. Therefore, a two-step treatment protocol is required.
Human LNCaP cells, treated with 100 uM arsenic for 2 hours then washed and re-fed with normal medium, develop an elevation in cellular glutathione levels over a 24-hour period. Since exogenous antioxidants are known to be potent inhibitors of apoptotic mechanism, it is believed that internally-produced antioxidants such as glutathione function in a similar manner. […] Although Mesna increases apoptosis alone, the low concentrations of Mesna utilized in this two-step treatment protocol increased apoptosis minimally i.e., to 11 percent from a background of 3 to 5 percent in untreated cells.
(§1) In all of the experiments associated with the investigation of Mesna as a redox clamping agent, as a stand-alone anticancer agent as well as a chemosensitizer, the cell culture medium used was Swim's S-77 medium containing 12 uM cystine, instead of conventional levels of this amino acid (i.e., 50 uM). […]

[4] = system: human tumor cell lines; assay: Growth inhibition of human tumor cell lines in culture; type: cell-based
Text: The present invention provides a method of treating lymphoma, ovarian cancer, colorectal cancer, or gastric cancer comprising administering an effective amount of Mesna to a patient with lymphoma, ovarian cancer, colorectal cancer or gastric cancer. Mesna inhibits the growth of several human tumor cell lines in culture, and there are no strict relationships between the histopathological origin of the cell lines and the sensitivity of the cell lines to Mesna. […] It is further preferred that the patient be administered Mesna for a seven to ten day period. The doses may be cycled. The actual dose will be dependent on the size, type and location of the tumor as well as the overall status of the patient. It is preferred that high concentrations of Mesna be administered intravenously to achieve clamping initially, with further administration of oral doses to maintain the clamped state. […] Cancer cell lines were growth inhibited when Mesna was administered on several consecutive days. Mesna has shown good activity in preventing the urotoxicity of oxazaphosphorine compound.
as §1

[5] = system: metastatic and/or relapsed tumors refractory to conventional therapy; assay: Clinical study of oral Mesna as single agent in 14 patients with metastatic and/or relapsed tumors refractory to conventional therapy; type: in vivo, human
Procedure: From December 1996 to March 1998 a study was performed on 14 ambulatory patients with metastatic and/or relapsed tumors refractory to conventional therapy. Eligibility criteria included histologically-confirmed advanced cancer, patients age was greater than 18 years, with a life expectancy no less than two months. The patients had not undergone major surgery within 2 weeks, or radiotherapy and/or chemotherapy within one month of the study. […] Exclusion criteria included active uncontrolled infection, pregnancy, lactation and any other co-existing medical problems severe enough to prevent full compliance with the study. Objectively measurable disease in the patients was required. All patients gave informed written consent before treatment. 600 mg/m^2 of Mesna was given by oral route four times a day, masked in orange juice for 10 consecutive days. Cycles were repeated every 15 days. No simultaneous chemotherapy and or radiotherapy and no other supportive care was given. The main objective of the study was to determine the anti-tumoral activity and toxicity of Mesna for heavily and or refractory pretreated cancer patients. […] The patients were all previously treated with between two and four different chemotherapy regimens. Mesna was administered as a single agent to all of the patients in the study. The toxic effects of Mesna and number of nodes were assessed during the first cycle of Mesna administration. […] For colorectal cancer a greater than 50% reduction of nodular lesions metastasized to liver was registered, during the second schedule of therapy. For gastric cancer a greater than 50% reduction of a subcutaneous nodule was measured during the second course of Mesna treatment.

[6] = within a few minutes after administration; cited from earlier work
[7] = even in very high dose, i.e. 1000 mg/kg; cited from earlier work
[8] = arsenic treated cells washed and incubated in medium containing 100 uM Mesna

SMILES: CCCC(=O)O [Butyrate]
- concentration at which apoptosis is induced ([1]; butyrate alone): greater than 3 mM
- concentration giving an effective kill ([1]; in the presence of a redox clamping agent): ≥ 0.5 mM

SMILES: O=C(O)[C@@H](S)[C@@H](S)C(=O)O [DMSA]
- effect on stress-induced upswings in antioxidant levels (glutathione, metallothionein) [2]: oppose stress-induced upswings in antioxidant levels

SMILES: O=S(=O)([O-])CCS.[Na+] [Mesna, Sodium-2-mercaptoethane sulphonate]
- elevation in glutathione levels [3, 8]: dramatically diminished
- fraction of apoptotic cells compared to arsenic alone [3, 8]: increased more than two-fold
- apoptosis with Mesna alone ([3]; low concentration of Mesna as used in the two-step protocol, background 3 to 5 percent in untreated cells): 11%
- effect on stress-induced upswings in antioxidant levels (glutathione, metallothionein) [2]: oppose stress-induced upswings in antioxidant levels
- incorporation of 3H-thymidine, proline and uridine [4]: inhibited incorporation
- growth of human tumor cell lines in culture ([4]; lymphoma, ovarian cancer, colorectal cancer, gastric cancer lines, drug administered on several consecutive days): inhibits growth of several human tumor cell lines
- reduction of nodular lesions metastasized to liver ([5]; colorectal cancer patient, 600 mg/m^2 oral four times a day, second schedule of therapy): greater than 50%
- reduction of a subcutaneous nodule ([5]; gastric cancer patient, 600 mg/m^2 oral four times a day, second course of treatment): greater than 50%
- objective responses ([5]; patients with lung cancer, soft tissue sarcoma, skin metastases of unknown origin, bladder cancer, melanoma and cancer of the cervix): No objective responses were achieved
- clinical response in ovarian cancer patients ([5]; two patients, 600 mg/m^2 oral four times a day for 10 days, cycles every 15 days, second and third course respectively): reduced ascites and pain
- administered dose transformed into Mesna disulphide [6]: more than 90%
- pharmacological and toxicological behaviour [7]: relatively inert substance

SMILES: [AsH3] [arsenic]
- apoptosis of the cells ([3]; 100 uM arsenic for 2 hours, then washed and re-fed with normal medium, 24-hour period): 28%
